Experimental data: patent publication US5459063A, “Plasmodium falciparum ribonucleotide reductase DNA” (priority 1993, dated 1995)
Where two headings read alike, the source gives them in different places. Square brackets hold non-standard residues; d marks the D form. Ends that are not written are not given here. Peptide text beside a SMILES is read from it. Phe(4-N3) = [N-]=[N+]=Nc1ccc(C[C@H](N)C(=O)O)cc1; Phe(4-NH2) = Nc1ccc(C[C@H](N)C(=O)O)cc1

T1: calf thymus/mouse ribonucleotide reductase (mammalian RR) (Bos taurus, UniProt Q32LP1)
T1 sequence (Q32LP1 1-791): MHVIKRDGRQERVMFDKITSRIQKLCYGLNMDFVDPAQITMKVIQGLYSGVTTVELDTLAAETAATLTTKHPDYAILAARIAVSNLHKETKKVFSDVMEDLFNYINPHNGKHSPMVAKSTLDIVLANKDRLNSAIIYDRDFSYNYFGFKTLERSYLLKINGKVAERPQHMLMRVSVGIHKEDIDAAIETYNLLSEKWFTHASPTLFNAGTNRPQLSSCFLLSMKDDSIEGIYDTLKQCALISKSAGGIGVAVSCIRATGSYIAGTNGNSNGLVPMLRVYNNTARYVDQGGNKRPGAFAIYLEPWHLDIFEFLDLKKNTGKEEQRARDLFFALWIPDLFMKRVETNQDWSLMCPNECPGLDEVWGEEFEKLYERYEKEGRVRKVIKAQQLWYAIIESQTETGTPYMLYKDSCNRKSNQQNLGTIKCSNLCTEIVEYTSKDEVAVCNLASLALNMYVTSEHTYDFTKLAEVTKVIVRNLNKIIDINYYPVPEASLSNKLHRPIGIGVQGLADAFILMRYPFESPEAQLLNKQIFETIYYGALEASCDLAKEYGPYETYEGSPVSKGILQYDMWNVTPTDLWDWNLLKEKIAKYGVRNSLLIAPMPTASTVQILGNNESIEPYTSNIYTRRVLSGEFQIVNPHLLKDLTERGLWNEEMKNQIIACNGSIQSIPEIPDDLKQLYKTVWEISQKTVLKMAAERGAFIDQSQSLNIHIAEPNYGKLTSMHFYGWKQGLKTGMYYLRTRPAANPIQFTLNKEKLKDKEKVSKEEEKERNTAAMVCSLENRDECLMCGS


What was measured:
[1] = target: T1, calf thymus/mouse ribonucleotide reductase (mammalian RR); assay: biochemical; settings: for Percent RI (percent relative inhibitory potency): 100 × (IC50 Ac(FTLDADF)/IC50 peptide analog)
Excerpt: From two to four assays were run

Molecule | IC50 [1] | Percent RI (percent relative inhibitory potency) ([1]; Table 4, mammalian RR) | Percent RI (percent relative inhibitory potency), mammalian RR activity (calf thymus R1 (calf)) | also measured
CC(=O)N[C@@H](Cc1ccc(N)cc1)C(=O)N[C@H](C(=O)N[C@@H](CC(C)C)C(=O)N[C@@H](CC(=O)O)C(=O)N[C@@H](C)C(=O)N[C@@H](CC(=O)O)C(=O)N[C@@H](Cc1ccccc1)C(=O)O)[C@@H](C)O [Peptide 9, Ac- (F(4'-NH2)TLDADF)] (Ac-[Phe(4-NH2)]TLDADF-OH) | 100 µM | 10% | – | –
CC(=O)N[C@@H](Cc1ccc(N=[N+]=[N-])cc1)C(=O)N[C@H](C(=O)N[C@@H](CC(C)C)C(=O)N[C@@H](CC(=O)O)C(=O)N[C@@H](C)C(=O)N[C@@H](CC(=O)O)C(=O)N[C@@H](Cc1ccccc1)C(=O)O)[C@@H](C)O [Peptide 10, Ac- (F(4'-N3)TLDADF)] (Ac-[Phe(4-N3)]TLDADF-OH) | 100 µM | 10% | – | –
Ac- (FTFTADF) [Peptide 14] | – | 18 ± 4.2% | – | IC50 ([1]; read-out: IC50, concentration of peptide producing 50% inhibition of activity, Table 4, mammalian RR, Dixon plots of 4-6 concentration points, ranges are two independent determinations on different days): 48 to 58 µM
Ac-(FTFTADF) (peptide) | – | – | 18% | –
Ac-(FTLDALF) (peptide) | – | – | 35% | –
Ac-FALDADF [Peptide 12, Ac- (FALDADF)] | 35 to 40 µM | 24 ± 4.1% | – | –
Ac-FCLNTEF [Ac-(SEQ ID NO:7), Ac- (FCLNTEF)] | – | – | – | IC50 ([1]; IC50 on mammalian RR activity, Example 54 text, peptide bound to purified calf thymus R1 before adding recombinant mouse R2): 160 µM; times less potent an inhibitor on mammalian RR activity than Ac-(SEQ ID NO:6) ([1]; relative to Ac-(SEQ ID NO:6)): 8-16 times
Ac-FLDADF [Peptide 25, Ac- (FLDADF)] | 412 µM | 2.5% | – | –
Ac-FSLDADF [Peptide 11, Ac- (FSLDADF)] | 40 to 42 µM | 25 ± 1.1% | – | –
Ac-FTADADF [Peptide 15, Ac- (FTADADF)] | 207 µM | 4.9 ± 0.60% | – | –
Ac-FTFNEDF [Peptide 30, Ac- (FTFNEDF)] | 100 µM | – | – | –
Ac-FTLAADF [Peptide 17, Ac- (FTLAADF)] | 286 to 336 µM | 2.9 ± 0.4% | – | –
Ac-FTLDAAF [Peptide 23, Ac- (FTLDAAF)] | 34 to 35 µM | 28 ± 1.3% | – | –
Ac-FTLDADFAA [Peptide 28] | 500 µM | 2.1% | – | –
Ac-FTLDADL [Peptide 24, Ac- (FTLDADL)] | > 400 µM | < 3% | – | –
Ac-FTLDAEF [Peptide 20, Ac- (FTLDAEF)] | 450 to 620 µM | 1.7 ± 0.15% | – | –
Ac-FTLDALF [Peptide 22, Ac- (FTLDALF)] | 29 to 30 µM | 35 ± 5.0% | – | –
Ac-FTLDANF [Peptide 21, Ac- (FTLDANF)] | 32 to 38 µM | 23 ± 1.0% | – | –
Ac-FTLDDF [Peptide 26, Ac- (FTLDDF)] | 322 µM | 3% | – | –

Molecule | IC50 [1] | Percent RI (percent relative inhibitory potency) ([1]; Table 4, mammalian RR) | Percent RI (percent relative inhibitory potency), mammalian RR activity (calf thymus R1 (calf)) | also measured
Ac-FTLDF [Peptide 27, Ac- (FTLDF)] | 364 to 460 µM | 2.5 ± 0.18% | – | –
Ac-FTLDGDF [Peptide 18, Ac- (FTLDGDF)] | 110 to 230 µM | 9 ± 0.6% | – | –
Ac-FTLDLDF [Peptide 19, Ac- (FTLDLDF)] | 28 µM | 35% | – | –
Ac-FTLNADF [Peptide 16, Ac- (FTLNADF)] | 25 to 29 µM | 40 ± 2.4% | – | –
Ac-FTVDADF [Peptide 13, Ac- (FTVDADF)] | 30 µM | 35% | – | –
Ac-LDADF [Peptide 7, Ac- (LDADF)] | > 400 µM | < 3% | – | –
Ac-LTLDADF [Peptide 8, Ac- (LTLDADF)] | > 400 µM | < 3% | – | –
Ac-NSFTLDADF [Peptide 1] | 9 to 15 µM | 100% | – | –
Ac-SFTLDADF [Peptide 2] | 8 to 20 µM | 100% | – | –
Ac-TLDADF [Peptide 6, Ac- (TLDADF)] | > 400 µM | < 3% | – | –
FTLDADF [Peptide 5, FTLDADF] | > 400 µM | < 3% | – | –
SFTLDADF (peptide) | – | – | 25% | IC50, inhibition of mammalian RR activity (calf thymus R1 (calf)): 80 µM
SFTLDADF [Peptide 3] | 80 µM | 25% | – | –
Ac-SFTLDADF [Ac-(SFTLDADF)] | – | – | 100% | –
FTLDADF | – | – | < 3% | IC50, inhibition of mammalian RR activity (calf thymus R1 (calf)): > 400 µM
Ac-TLDADF [Ac-(TLDADF)] | – | – | < 3% | IC50, inhibition of mammalian RR activity (calf thymus R1 (calf)): > 400 µM
Ac-LDADF [Ac-(LDADF)] | – | – | < 3% | IC50, inhibition of mammalian RR activity (calf thymus R1 (calf)): > 400 µM
Ac-LTLDADF [Ac-(LTLDADF)] | – | – | < 3% | IC50, inhibition of mammalian RR activity (calf thymus R1 (calf)): > 400 µM
Ac-[Phe(4-NH2)]TLDADF [Ac-(F(4'-NH2)TLDADF)] | – | – | 10% | IC50, inhibition of mammalian RR activity (calf thymus R1 (calf)): 100 µM

Molecule | IC50 [1] | Percent RI (percent relative inhibitory potency) ([1]; Table 4, mammalian RR) | Percent RI (percent relative inhibitory potency), mammalian RR activity (calf thymus R1 (calf)) | also measured
Ac-[Phe(4-N3)]TLDADF [Ac-(F(4'-N3)TLDADF)] | – | – | 10% | IC50, inhibition of mammalian RR activity (calf thymus R1 (calf)): 100 µM
Ac-FSLDADF [Ac-(FSLDADF)] | – | – | 25% | –
Ac-FALDADF [Ac-(FALDADF)] | – | – | 24% | –
Ac-FTVDADF [Ac-(FTVDADF)] | – | – | 35% | IC50, inhibition of mammalian RR activity (calf thymus R1 (calf)): 30 µM
Ac-FTADADF [Ac-(FTADADF)] | – | – | 4.9% | IC50, inhibition of mammalian RR activity (calf thymus R1 (calf)): 207 µM
Ac-FTLNADF [Ac-(FTLNADF)] | – | – | 40% | –
Ac-FTLAADF [Ac-(FTLAADF)] | – | – | 2.9% | –
Ac-FTLDGDF [Ac-(FTLDGDF)] | – | – | 9% | –
Ac-FTLDLDF [Ac-(FTLDLDF)] | – | – | 35% | IC50, inhibition of mammalian RR activity (calf thymus R1 (calf)): 28 µM
Ac-FTLDAEF [Ac-(FTLDAEF)] | – | – | 1.7% | –
Ac-FTLDANF [Ac-(FTLDANF)] | – | – | 23% | –
Ac-FTLDAAF [Ac-(FTLDAAF)] | – | – | 28% | –
Ac-FTLDADL [Ac-(FTLDADL)] | – | – | < 3% | IC50, inhibition of mammalian RR activity (calf thymus R1 (calf)): > 400 µM
Ac-FLDADF [Ac-(FLDADF) (6 pos. del.)] | – | – | 2.5% | IC50, inhibition of mammalian RR activity (calf thymus R1 (calf)): 412 µM
Ac-FTLDDF [Ac-(FTLDDF) (3 pos. del.)] | – | – | 3% | IC50, inhibition of mammalian RR activity (calf thymus R1 (calf)): 322 µM
Ac-FTLDF [Ac-(FTLDF) (3 & 4 pos. del.)] | – | – | 2.5% | –
Ac-FTLDADFAA | – | – | 2.1% | IC50, inhibition of mammalian RR activity (calf thymus R1 (calf)): 500 µM
Ac-NSFTLDADF | – | – | 100% | –
